Patent publication US12344631B2, “C17 polar-substituted heteroaromatic synthetic triterpenoids and methods of use thereof” (REATA PHARMACEUTICALS, INC., priority 2019, dated 2025)

Assays:
[1] = test system: AML-12 hepatocyte cell line; assay: Glutathione assay (total glutathione, GSH-Glo); assay type: cell-based, mouse; details: for EC50: Mus musculus, AML12, AML-12 cells, 24 hours, total glutathione, read-out: GSH EC50 (nM) (Mean ± SD); for GSH EC50 Relative to RTA 402 (fold) (Mean ± SD): benchmark RTA 402
Procedure, shortened: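 Mouse AML-12 hepatocytes were treated with compound (0.03 nM to 1000 nM, 0.1% DMSO) for 24 hours at 37° C., and total glutathione was measured by GSH-Glo luminescence against a glutathione standard curve. EC50 values came from nonlinear regression, with basal glutathione set to 0% and the maximal compound-induced level set to 100%.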

[2] = test system: AREc32 reporter cell line (antioxidant response element of rat Gsta2, Nrf2 target gene); assay: AREc32 luciferase reporter activation; assay type: cell-based, human; details: for AREc32 EC2X Relative to RTA 402 (fold) (Mean ± SD): average of ratios from replicate experiments, benchmark RTA 402; for AREc32 Relative to CC in Same Experiment (Mean ± SD): average of ratios from experiments with direct comparisons; for EC (2-fold): human, Arec32, 19 h, concentration increasing luminescence signal 2-fold above vehicle, nineteen hours, read-out: AREc32 EC2X (nM) (Mean ± SD)
Procedure, shortened: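 MCF-7-derived cells carry luciferase driven by eight copies of the rat Gsta2 ARE. EC2X was extrapolated from a nonlinear fit of fold increase over vehicle.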

[3] = biological target: CYP3A4 (Homo sapiens, UniProt P08684); assay: CYP3A4 (midazolam) inhibition in human liver microsomes; details: for CYP3A4 inhibition compared with historical data for RTA 402 and RTA 408: comparable conditions (FIG. 1); for inhibition at 10 min, 1 μM: human, human liver microsomes, probe midazolam (5 μM); for CYP3A4 inhibition lower than the corresponding unsubstituted compound: vs CC2, CC1 or CC3, 1 μM
[4] = test system: RAW 264.7 cells; assay: Nitric oxide suppression assay (IFNγ-induced NO production); assay type: cell-based, mouse; details: for IC50: Mus musculus, RAW264.7, RAW 264.7 cells, 2 h pretreatment, 20 ng/mL interferon gamma 24 h, nitrite by Griess, read-out: NO IC50 (nM) (Mean ± SD); for NO IC50 Relative to RTA 402 (fold) (Mean ± SD): average of ratios from replicate experiments, benchmark RTA 402
Procedure, shortened: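 Mouse RAW 264.7 macrophages in RPMI 1640 with 0.5% FBS were pretreated with compounds for 2 h at 37° C (0.1% DMSO final), then stimulated with 20 ng/mL IFNγ for 24 h. Nitrite in the supernatant was read at 525 nm against standards and normalized to DMSO/IFNγ wells. IC50 values were fitted with dependence on WST-1 viability.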

Sequence of CYP3A4 (P08684 whole entry): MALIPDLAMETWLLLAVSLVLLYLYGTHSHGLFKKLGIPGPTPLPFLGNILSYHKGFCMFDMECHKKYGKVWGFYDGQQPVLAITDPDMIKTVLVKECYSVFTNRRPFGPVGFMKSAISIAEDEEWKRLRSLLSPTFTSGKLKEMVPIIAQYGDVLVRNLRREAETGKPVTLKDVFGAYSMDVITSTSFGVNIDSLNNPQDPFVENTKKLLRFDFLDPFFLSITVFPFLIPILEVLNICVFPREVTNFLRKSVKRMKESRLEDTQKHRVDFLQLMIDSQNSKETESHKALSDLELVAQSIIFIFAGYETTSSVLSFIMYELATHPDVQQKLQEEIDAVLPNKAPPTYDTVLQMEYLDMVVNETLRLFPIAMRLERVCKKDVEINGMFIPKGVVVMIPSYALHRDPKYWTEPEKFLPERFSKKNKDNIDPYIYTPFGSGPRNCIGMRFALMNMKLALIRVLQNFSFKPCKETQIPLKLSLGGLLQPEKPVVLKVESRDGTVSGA

SMILES | EC50 [1] | GSH EC50 Relative to RTA 402 (fold) (Mean ± SD) [1] | AREc32 EC2X Relative to RTA 402 (fold) (Mean ± SD) [2] | AREc32 Relative to CC in Same Experiment (Mean ± SD) ([2]; comparison compound CC1) | EC (2-fold) [2] | CYP3A4 inhibition compared with historical data for RTA 402 and RTA 408 [3] | inhibition at 10 min, 1 μM [3] | CYP3A4 inhibition lower than the corresponding unsubstituted compound [3] | IC50 [4] | NO IC50 Relative to RTA 402 (fold) (Mean ± SD) [4] | AREc32 Relative to CC in Same Experiment (Mean ± SD) ([2]; comparison compound CC2) | AREc32 Relative to CC in Same Experiment (Mean ± SD) ([2]; comparison compound CC3)
CC1(C)CC[C@]2(c3nnc(CF)o3)CC[C@]3(C)[C@H](C(=O)C=C4[C@@]5(C)C=C(C#N)C(=O)C(C)(C)[C@@H]5CC[C@]43C)[C@@H]2C1 [Compound T11] | 0.54 ± 0.29 nM | 0.32 ± 0.13 fold | 0.25 ± 0.08 fold | 0.27 ± 0.03 | 3.23 ± 0.77 nM | reduced CYP3A4 inhibition | 17.7% | 15% | 0.98 nM | 0.37 ± 0.07 fold | – | –
CC1(C)CC[C@]2(c3nc(CF)no3)CC[C@]3(C)[C@H](C(=O)C=C4[C@@]5(C)C=C(C#N)C(=O)C(C)(C)[C@@H]5CC[C@]43C)[C@@H]2C1 [Compound T12] | 0.82 ± 0.4 nM | 0.50 ± 0.19 fold | 0.53 ± 0.12 fold | – | 6.87 ± 1.57 nM | reduced CYP3A4 inhibition | 29.7% | 35% | 1.27 nM | 0.52 ± 0.12 fold | 0.75 ± 0.05 | –
C[C@@H]1C(=O)C(C#N)=C[C@]2(C)C3=CC(=O)[C@@H]4[C@@H]5CC(C)(C)CC[C@]5(c5nc(CF)no5)CC[C@@]4(C)[C@]3(C)CC[C@@H]12 [Compound T34] | 0.35 ± 0.06 nM | 0.18 ± 0.02 fold | 0.36 ± 0.05 fold | – | 4.5 ± 0.66 nM | reduced CYP3A4 inhibition | 29.4% | 22% | 0.93 nM | 0.28 ± 0.06 fold | – | 0.76 ± 0.14
